This note sets out measurements from publication PMC2824672, “Identification of inhibitors of Plasmodium falciparum phosphoethanolamine methyltransferase using an enzyme-coupled transmethylation assay” (2010).

Each structure is given as a SMILES string.

The target in test [1] is T1, phosphoethanolamine methyltransferase, PfPMT (Plasmodium falciparum, UniProt Q8IDQ9).
T1 construct: gene PMT; recombinant 6His-tagged PfPMT (266 residues), 15N-labeled for NMR
The test is described as follows: 1H-15N HSQC NMR titration; also inhibition of purified enzyme in coupled assay. It is filed as binding.

Test [2] addresses T2, phosphoethanolamine methyltransferase, PfPMT (Plasmodium falciparum, UniProt Q8IDQ9).
T2 sequence (Q8IDQ9 1-266): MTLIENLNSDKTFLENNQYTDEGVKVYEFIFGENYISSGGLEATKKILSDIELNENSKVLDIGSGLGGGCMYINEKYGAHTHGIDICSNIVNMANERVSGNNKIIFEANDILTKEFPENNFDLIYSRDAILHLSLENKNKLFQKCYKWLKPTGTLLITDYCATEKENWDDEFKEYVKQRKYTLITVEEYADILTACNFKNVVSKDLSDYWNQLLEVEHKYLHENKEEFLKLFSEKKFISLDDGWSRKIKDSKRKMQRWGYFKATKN
Briefly: 1H-15N HSQC NMR titration (weak; no enzyme inhibition at […]). It is filed as binding. On the set-up: gene PMT; recombinant 6His-tagged PfPMT, 15N-labeled for NMR.

Test [3] has as its target T2, phosphoethanolamine methyltransferase, PfPMT. Briefly: enzyme-coupled spectrophotometric methyltransferase assay. The format is biochemical. Also on record: gene PMT; recombinant purified PfPMT (pET-15b).
For test [4] the target is unchanged. The test is described as follows: enzyme-coupled assay, substrate turnover by purified enzyme. On the set-up: gene PMT; recombinant purified PfPMT (pET-15b). The format is biochemical.
For test [5] the target is unchanged. The test is described as follows: enzyme-coupled assay, co-substrate turnover by purified enzyme. It is filed as biochemical. On the set-up: gene PMT; recombinant purified PfPMT (pET-15b).

`CCN(CC)Cc1cc(Nc2ccnc3cc(Cl)ccc23)ccc1O` [AQ, amodiaquine] returned an inhibition at 5 µM in test [1] of 60%.

On to `CCN(CC)CCCC(C)Nc1ccnc2cc(Cl)ccc12` (stereo not shown) [CQ, chloroquine], for which the “1H-15N HSQC NMR titration (weak; no enzyme inhibition at 200 μM)” value in test [2] is “indicating site-specific binding, the affinity of CQ for PfPMT is much lower than that of AQ”.

`CCCCCCCCCCCC[N+](C)(C)C` [DDTA, Dodecyltrimethylammonium bromide]: the inhibition at 500 µM in test [3] is 25%.

As to `CCCCCCCCCCCCCCCC[N+](C)(C)C` [HDTA, Hexadecyltrimethylammonium bromide], in test [3], the inhibition at 100 µM was ~50%.

`CCCCCCCCCCCCCCCCOP(=O)([O-])OCC[N+](C)(C)C` [HePC, Miltefosine]: the inhibition at 100 µM in test [3] is ~60%.

Turning to `NCCOP(=O)(O)O` [P-EA, phosphoethanolamine], in test [4], the “enzyme-coupled assay, substrate turnover by purified enzyme” value was “PfPMT activity increased proportionally to the concentration of these substrates”.

In the case of `C[S+](CC[C@H](N)C(=O)[O-])C[C@H]1O[C@@H](n2cnc3c(N)ncnc32)[C@H](O)[C@@H]1O` (stereo partly shown) [SAM, S-adenosylmethionine], in test [5], the “enzyme-coupled assay, co-substrate turnover by purified enzyme” value was “The effect of increasing concentrations of the substrate P-EA and co-substrate SAM on PfPMT activity was also measured”.
